What was measured:
Experiment in all cases: radiometric filter-binding kinase assay
MAPK12 (human) = MAPK12 (human) (UniProt P53778)
DYRK1A (human) = DYRK1A (human) (UniProt Q13627)
MAP3K11 (human) = MAP3K11 (human) (UniProt Q16584)
MAPK8 (human) = MAPK8 (human) (UniProt P45983)
MAPKAPK5 (human) = MAPKAPK5 (human) (UniProt Q8IW41)
MAPK14 (human) = MAPK14 (human) (UniProt Q16539)
PIM1 (human) = PIM1 (human) (UniProt P11309)
IKBKE (human) = IKBKE (human) (UniProt Q14164); details: compound 10.0 µM
MKNK2 (human) = MKNK2 (human) (UniProt Q9HBH9)
YES1 (human) = YES1 (human) (UniProt P07947)
EPHA4 (human) = EPHA4 (human) (UniProt P54764)
RIPK2 (human) = RIPK2 (human) (UniProt O43353)
MAPKAPK2 (human) = MAPKAPK2 (human) (UniProt P49137); details: compound 1.0 µM
CaMK1 (human) = CaMK1 (human) (UniProt Q14012)
MELK (human) = MELK (human) (UniProt Q14680)
MINK1 (human) = MINK1 (human) (UniProt Q8N4C8)
MAP3K7 TAB1 (human) = MAP3K7 TAB1 (human) (UniProt Q15750+O43318)
BTK (human) = BTK (human) (UniProt Q06187)
BRSK1 (human) = BRSK1 (human) (UniProt Q8TDC3)
CSK (human) = CSK (human) (UniProt P41240)
IGF1R (human) = IGF1R (human) (UniProt P08069)
HIPK2 (human) = HIPK2 (human) (UniProt Q9H2X6)
MAP2K2 (human) = MAP2K2 (human) (UniProt P36507)
DYRK2 (human) = DYRK2 (human) (UniProt Q92630)
PAK4 (human) = PAK4 (human) (UniProt O96013)
MAPK9 (human) = MAPK9 (human) (UniProt P45984)
EPHB3 (human) = EPHB3 (human) (UniProt P54753)
IKBKB (human) = IKBKB (human) (UniProt O14920)
CAMKK2 (human) = CAMKK2 (human) (UniProt Q96RR4)
EPHB2 (human) = EPHB2 (human) (UniProt P29323)
PAK7 (human) = PAK7 (human) (UniProt Q9P286)
PRKACA (human) = PRKACA (human) (UniProt P17612)
CSNK1D (human) = CSNK1D (human) (UniProt P48730)
AURKB (human) = AURKB (human) (UniProt Q96GD4)
MAPK15 (human) = MAPK15 (human) (UniProt Q8TD08)
MAPK15 (human), sequence (Q8TD08 whole entry, looked up): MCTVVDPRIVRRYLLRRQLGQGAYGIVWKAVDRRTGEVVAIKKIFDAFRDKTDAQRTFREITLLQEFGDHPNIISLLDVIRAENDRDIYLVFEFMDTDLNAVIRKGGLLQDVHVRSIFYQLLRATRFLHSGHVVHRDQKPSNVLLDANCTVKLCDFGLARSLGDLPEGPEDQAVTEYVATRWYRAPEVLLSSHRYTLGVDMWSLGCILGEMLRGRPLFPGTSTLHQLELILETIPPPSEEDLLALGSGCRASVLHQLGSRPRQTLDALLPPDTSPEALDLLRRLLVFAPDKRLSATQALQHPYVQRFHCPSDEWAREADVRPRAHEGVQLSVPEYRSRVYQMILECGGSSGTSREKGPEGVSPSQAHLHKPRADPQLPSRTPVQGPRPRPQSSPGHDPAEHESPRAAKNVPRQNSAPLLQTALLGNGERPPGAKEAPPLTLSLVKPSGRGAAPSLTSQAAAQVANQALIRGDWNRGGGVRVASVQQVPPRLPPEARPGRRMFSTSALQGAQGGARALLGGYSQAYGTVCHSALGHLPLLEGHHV

MAPK9 (human), sequence (P45984 whole entry, looked up): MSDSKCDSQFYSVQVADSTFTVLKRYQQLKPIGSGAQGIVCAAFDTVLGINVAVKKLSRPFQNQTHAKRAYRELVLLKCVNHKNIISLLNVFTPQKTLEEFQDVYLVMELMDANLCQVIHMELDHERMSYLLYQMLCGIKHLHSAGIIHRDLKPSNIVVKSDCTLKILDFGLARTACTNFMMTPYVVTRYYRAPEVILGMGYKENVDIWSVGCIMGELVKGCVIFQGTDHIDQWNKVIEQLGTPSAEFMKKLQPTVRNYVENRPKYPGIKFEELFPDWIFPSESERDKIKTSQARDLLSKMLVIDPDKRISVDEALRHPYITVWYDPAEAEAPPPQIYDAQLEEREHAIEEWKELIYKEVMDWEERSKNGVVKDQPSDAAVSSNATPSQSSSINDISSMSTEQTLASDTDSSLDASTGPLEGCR
CAMKK2 (human), sequence (Q96RR4 whole entry, looked up): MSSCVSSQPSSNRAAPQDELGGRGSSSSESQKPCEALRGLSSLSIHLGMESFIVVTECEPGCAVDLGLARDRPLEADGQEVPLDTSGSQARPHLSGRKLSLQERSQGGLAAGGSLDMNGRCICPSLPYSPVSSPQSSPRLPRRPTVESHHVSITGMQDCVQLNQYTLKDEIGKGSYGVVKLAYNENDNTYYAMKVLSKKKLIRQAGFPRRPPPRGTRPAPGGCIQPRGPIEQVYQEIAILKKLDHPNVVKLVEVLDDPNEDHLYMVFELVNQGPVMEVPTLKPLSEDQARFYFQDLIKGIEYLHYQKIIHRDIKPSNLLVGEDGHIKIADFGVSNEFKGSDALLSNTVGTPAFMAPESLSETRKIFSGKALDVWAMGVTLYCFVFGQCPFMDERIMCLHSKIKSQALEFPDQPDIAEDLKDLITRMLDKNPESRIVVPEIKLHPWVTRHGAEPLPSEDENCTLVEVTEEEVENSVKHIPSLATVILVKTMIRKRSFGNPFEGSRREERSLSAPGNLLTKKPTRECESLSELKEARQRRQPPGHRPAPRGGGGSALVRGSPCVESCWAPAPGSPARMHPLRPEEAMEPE
HIPK2 (human), sequence (Q9H2X6 whole entry, looked up): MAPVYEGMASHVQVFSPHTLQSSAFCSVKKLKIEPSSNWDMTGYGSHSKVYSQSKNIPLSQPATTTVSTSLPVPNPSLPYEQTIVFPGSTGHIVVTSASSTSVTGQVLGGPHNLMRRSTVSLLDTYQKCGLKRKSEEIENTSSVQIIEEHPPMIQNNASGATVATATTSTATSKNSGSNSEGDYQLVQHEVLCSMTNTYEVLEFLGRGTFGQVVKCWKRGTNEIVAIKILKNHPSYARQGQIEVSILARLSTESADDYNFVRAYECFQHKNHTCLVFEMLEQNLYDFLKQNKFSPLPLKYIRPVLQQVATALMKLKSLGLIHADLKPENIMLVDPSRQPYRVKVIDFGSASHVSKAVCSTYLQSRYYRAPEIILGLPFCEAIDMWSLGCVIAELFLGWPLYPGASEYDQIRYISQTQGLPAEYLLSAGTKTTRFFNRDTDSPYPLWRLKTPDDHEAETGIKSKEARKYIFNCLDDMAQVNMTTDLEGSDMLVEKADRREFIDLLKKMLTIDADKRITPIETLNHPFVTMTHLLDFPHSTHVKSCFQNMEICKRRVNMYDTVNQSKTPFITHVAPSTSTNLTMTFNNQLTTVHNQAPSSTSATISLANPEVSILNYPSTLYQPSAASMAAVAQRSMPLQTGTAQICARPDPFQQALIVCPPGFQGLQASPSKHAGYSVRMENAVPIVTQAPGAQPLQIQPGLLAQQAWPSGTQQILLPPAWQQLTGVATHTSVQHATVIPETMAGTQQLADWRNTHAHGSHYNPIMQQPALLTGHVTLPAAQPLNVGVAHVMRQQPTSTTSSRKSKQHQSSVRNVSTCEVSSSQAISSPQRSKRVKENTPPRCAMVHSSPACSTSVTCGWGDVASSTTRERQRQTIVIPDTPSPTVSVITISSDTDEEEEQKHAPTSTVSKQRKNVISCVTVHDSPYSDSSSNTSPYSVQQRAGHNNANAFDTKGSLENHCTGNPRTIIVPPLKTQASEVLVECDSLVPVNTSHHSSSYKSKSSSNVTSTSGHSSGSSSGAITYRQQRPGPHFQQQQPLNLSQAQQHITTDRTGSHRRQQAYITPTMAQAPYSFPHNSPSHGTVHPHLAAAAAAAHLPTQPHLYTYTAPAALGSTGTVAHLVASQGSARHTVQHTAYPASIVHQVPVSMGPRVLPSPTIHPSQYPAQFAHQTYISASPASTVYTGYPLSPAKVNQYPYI
IGF1R (human), sequence (P08069 whole entry, looked up): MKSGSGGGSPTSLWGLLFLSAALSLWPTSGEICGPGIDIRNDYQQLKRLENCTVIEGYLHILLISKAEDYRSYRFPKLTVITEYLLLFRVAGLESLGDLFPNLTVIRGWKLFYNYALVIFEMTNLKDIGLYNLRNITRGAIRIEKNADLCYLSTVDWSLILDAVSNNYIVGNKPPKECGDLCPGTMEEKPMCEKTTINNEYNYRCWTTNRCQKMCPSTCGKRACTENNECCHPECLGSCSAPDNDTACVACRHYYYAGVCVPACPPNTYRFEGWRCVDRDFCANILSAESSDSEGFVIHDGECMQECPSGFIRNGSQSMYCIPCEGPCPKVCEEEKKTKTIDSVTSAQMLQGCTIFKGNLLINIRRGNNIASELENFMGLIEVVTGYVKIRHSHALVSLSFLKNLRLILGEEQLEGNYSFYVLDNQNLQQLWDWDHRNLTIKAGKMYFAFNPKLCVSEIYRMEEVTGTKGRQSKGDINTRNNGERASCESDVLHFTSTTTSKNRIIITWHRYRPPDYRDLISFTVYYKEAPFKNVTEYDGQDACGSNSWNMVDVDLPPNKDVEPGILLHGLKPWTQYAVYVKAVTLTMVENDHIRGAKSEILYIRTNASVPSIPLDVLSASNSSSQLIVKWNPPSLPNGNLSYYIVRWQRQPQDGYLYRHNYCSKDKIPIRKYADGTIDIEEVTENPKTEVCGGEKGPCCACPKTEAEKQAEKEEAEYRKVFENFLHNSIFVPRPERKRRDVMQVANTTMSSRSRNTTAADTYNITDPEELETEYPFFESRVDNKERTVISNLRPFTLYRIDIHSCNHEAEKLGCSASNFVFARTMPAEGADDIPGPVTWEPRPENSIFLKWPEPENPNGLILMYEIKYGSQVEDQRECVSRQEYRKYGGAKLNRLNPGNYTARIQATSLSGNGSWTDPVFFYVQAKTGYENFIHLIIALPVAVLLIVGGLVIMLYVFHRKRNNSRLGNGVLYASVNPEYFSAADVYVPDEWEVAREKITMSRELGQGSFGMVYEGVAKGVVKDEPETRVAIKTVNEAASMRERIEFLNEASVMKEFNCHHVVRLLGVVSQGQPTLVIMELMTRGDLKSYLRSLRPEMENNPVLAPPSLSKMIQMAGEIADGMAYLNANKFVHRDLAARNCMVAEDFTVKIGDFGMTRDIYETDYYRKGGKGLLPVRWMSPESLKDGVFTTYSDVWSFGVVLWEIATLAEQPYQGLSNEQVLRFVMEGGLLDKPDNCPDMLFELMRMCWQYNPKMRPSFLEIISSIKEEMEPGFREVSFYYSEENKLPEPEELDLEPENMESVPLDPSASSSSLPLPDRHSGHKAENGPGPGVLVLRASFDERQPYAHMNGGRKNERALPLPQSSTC
BTK (human), sequence (Q06187 whole entry, looked up): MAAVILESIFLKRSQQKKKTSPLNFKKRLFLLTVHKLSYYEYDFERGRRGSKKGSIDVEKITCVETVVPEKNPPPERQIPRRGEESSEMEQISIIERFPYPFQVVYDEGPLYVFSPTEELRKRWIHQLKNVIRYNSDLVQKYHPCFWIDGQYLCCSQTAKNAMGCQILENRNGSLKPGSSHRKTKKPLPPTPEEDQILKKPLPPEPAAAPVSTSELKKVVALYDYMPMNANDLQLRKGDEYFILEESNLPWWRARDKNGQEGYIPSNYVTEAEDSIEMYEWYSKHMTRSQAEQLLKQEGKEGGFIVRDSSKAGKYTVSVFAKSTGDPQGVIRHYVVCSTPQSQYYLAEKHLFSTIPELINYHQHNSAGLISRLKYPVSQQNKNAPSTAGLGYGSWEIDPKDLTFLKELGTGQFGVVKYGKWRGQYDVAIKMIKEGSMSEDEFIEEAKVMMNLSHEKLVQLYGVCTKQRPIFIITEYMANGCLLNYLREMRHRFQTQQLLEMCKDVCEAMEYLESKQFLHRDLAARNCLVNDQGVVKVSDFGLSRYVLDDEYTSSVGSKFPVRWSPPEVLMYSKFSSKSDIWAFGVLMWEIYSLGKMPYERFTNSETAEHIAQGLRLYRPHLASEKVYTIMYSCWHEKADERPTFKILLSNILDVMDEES

SMILES: NC(=O)c1c(NC(=O)C2CC2)sc2c1CCCC2
- residual activity (MAPK12 (human); compound 1.0 µM): 93%
- residual activity (MAPK12 (human); compound 10.0 µM): 94%
- residual activity (DYRK1A (human); compound 1.0 µM): 85%
- residual activity (DYRK1A (human); compound 10.0 µM): 48%
- residual activity (MAP3K11 (human); compound 1.0 µM): 89%
- residual activity (MAP3K11 (human); compound 10.0 µM): 37%
- residual activity (MAPK8 (human); compound 1.0 µM): 97%
- residual activity (MAPK8 (human); compound 10.0 µM): 102%
- residual activity (MAPKAPK5 (human); compound 1.0 µM): 96%
- residual activity (MAPKAPK5 (human); compound 10.0 µM): 62%
- residual activity (MAPK14 (human); compound 1.0 µM): 100%
- residual activity (MAPK14 (human); compound 10.0 µM): 101%
- residual activity (PIM1 (human); compound 1.0 µM): 96%
- residual activity (PIM1 (human); compound 10.0 µM): 87%
- residual activity (IKBKE (human)): 109%
- residual activity (MKNK2 (human); compound 1.0 µM): 106%
- residual activity (MKNK2 (human); compound 10.0 µM): 115%
- residual activity (YES1 (human); compound 1.0 µM): 92%
- residual activity (YES1 (human); compound 10.0 µM): 79%
- residual activity (EPHA4 (human); compound 1.0 µM): 114%
- residual activity (EPHA4 (human); compound 10.0 µM): 53%
- residual activity (RIPK2 (human); compound 1.0 µM): 86%
- residual activity (RIPK2 (human); compound 10.0 µM): 36%
- residual activity (MAPKAPK2 (human)): 98%
- residual activity (CaMK1 (human); compound 1.0 µM): 98%
- residual activity (CaMK1 (human); compound 10.0 µM): 70%
- residual activity (MELK (human); compound 1.0 µM): 71%
- residual activity (MELK (human); compound 10.0 µM): 44%
- residual activity (MINK1 (human); compound 1.0 µM): 80%
- residual activity (MINK1 (human); compound 10.0 µM): 37%
- residual activity (MAP3K7 TAB1 (human); compound 1.0 µM): 92%
- residual activity (MAP3K7 TAB1 (human); compound 10.0 µM): 53%
- residual activity (BTK (human); compound 1.0 µM): 90%
- residual activity (BTK (human); compound 10.0 µM): 68%
- residual activity (BRSK1 (human); compound 1.0 µM): 97%
- residual activity (BRSK1 (human); compound 10.0 µM): 90%
- residual activity (CSK (human); compound 1.0 µM): 96%
- residual activity (CSK (human); compound 10.0 µM): 88%
- residual activity (IGF1R (human); compound 1.0 µM): 86%
- residual activity (IGF1R (human); compound 10.0 µM): 79%
- residual activity (HIPK2 (human); compound 1.0 µM): 94%
- residual activity (HIPK2 (human); compound 10.0 µM): 52%
- residual activity (MAP2K2 (human); compound 1.0 µM): 93%
- residual activity (MAP2K2 (human); compound 10.0 µM): 74%
- residual activity (DYRK2 (human); compound 1.0 µM): 109%
- residual activity (DYRK2 (human); compound 10.0 µM): 86%
- residual activity (PAK4 (human); compound 1.0 µM): 93%
- residual activity (PAK4 (human); compound 10.0 µM): 46%
- residual activity (MAPK9 (human); compound 1.0 µM): 106%
- residual activity (MAPK9 (human); compound 10.0 µM): 96%
- residual activity (EPHB3 (human); compound 1.0 µM): 115%
- residual activity (EPHB3 (human); compound 10.0 µM): 109%
- residual activity (IKBKB (human); compound 1.0 µM): 100%
- residual activity (IKBKB (human); compound 10.0 µM): 93%
- residual activity (CAMKK2 (human); compound 1.0 µM): 106%
- residual activity (CAMKK2 (human); compound 10.0 µM): 48%
- residual activity (EPHB2 (human); compound 1.0 µM): 104%
- residual activity (EPHB2 (human); compound 10.0 µM): 62%
- residual activity (PAK7 (human); compound 1.0 µM): 100%
- residual activity (PAK7 (human); compound 10.0 µM): 54%
- residual activity (PRKACA (human); compound 1.0 µM): 100%
- residual activity (PRKACA (human); compound 10.0 µM): 102%
- residual activity (CSNK1D (human); compound 1.0 µM): 96%
- residual activity (CSNK1D (human); compound 10.0 µM): 81%
- residual activity (AURKB (human); compound 1.0 µM): 79%
- residual activity (AURKB (human); compound 10.0 µM): 62%
- residual activity (MAPK15 (human); compound 1.0 µM): 106%
- residual activity (MAPK15 (human); compound 10.0 µM): 67%
